Test results from US20220402961A1 (BONTAC BIO-ENGINEERING(SHENZHEN) CO.,LTD, priority 2021, published 2022).

Conditions: screened with a sieve (1.00 mm, No. 18), poured into glass graduated measuring cylinder, apparent volume
Procedure: The tops were scraped flat. The apparent volumes were recorded. The bulk densities were calculated.

NC(=O)c1ccc[n+]([C@@H]2O[C@H](COP(=O)([O-])O)[C@@H](O)[C@H]2O)c1 [Form 1, nicotinamide mononucleotide anhydrous crystal (form 1)]
Bulk density: 0.15 g/mL
